The target of data set [1] is T1, Heat shock factor protein 1 (Mus musculus, UniProt P38532).
T1 sequence (P38532 whole entry): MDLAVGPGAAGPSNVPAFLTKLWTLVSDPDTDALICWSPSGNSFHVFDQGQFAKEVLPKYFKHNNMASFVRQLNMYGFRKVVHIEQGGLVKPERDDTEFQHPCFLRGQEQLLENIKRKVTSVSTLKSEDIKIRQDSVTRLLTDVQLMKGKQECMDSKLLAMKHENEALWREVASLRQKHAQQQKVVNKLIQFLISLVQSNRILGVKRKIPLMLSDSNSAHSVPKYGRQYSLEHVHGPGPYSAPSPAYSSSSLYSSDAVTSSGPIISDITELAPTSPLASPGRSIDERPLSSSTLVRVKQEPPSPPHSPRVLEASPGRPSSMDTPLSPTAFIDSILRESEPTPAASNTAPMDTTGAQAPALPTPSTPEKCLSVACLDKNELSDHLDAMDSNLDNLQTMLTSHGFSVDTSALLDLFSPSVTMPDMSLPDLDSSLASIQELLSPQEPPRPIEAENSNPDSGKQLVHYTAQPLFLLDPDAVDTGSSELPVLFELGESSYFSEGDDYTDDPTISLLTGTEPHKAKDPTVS
Kind of data set: inhibition of MG132-induced HSE-luciferase signal, confirmation, cell-based, NIH3T3, luminescence, dose retest (AID 2382).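 Further: NIH3T3 fibroblasts with HSF1-driven luciferase reporter stressed by proteasome inhibitor MG132; luminescence from HSF1-driven luciferase expression after 8 hours of MG132 stress.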 It is filed as functional.

A short description of data set [2]: inhibitors of intracellular T. cruzi replication, confirmation, NIH3T3 host cells, beta-gal luminescence (AID 2044).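 Further: intracellular parasites grown in NIH/3T3 mouse fibroblasts as host cells; luminescent beta-galactosidase reporter signal from transgenic T. cruzi replicating inside host cells; inhibitors lower the luminescence signal.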 It is filed as functional, cell-based.
The nature of data set [3]: cytotoxicity toward NIH3T3 fibroblasts, dose response, counter-screen, cell-based, ATP luminescence, mouse fibroblasts (AID 2010).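 Further: cells exposed to compound for about 90 hours before reading.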 The class given is functional.
A further data set has as its target Cytochrome P450 2C19 (Homo sapiens, UniProt P33261). Kind of data set: Cytochrome panel assay with activity outcomes. Panel member name: p450-cyp2c19 Compounds with AC50 equal or less than 10 uM are considered active. It is filed as functional.
The target of the next data set is Cytochrome P450 3A4 (Homo sapiens, UniProt P08684).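 Further: CYP3A4 tested as one member of a cytochrome P450 panel screen.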
The target of another data set is Cytochrome P450 2C9 (Homo sapiens, UniProt P11712).

SMILES strings stand for the structures. Activity calls are given as the source filed them. Some results are limits rather than exact numbers.

Cytochrome P450 3A4, sequence (P08684 whole entry): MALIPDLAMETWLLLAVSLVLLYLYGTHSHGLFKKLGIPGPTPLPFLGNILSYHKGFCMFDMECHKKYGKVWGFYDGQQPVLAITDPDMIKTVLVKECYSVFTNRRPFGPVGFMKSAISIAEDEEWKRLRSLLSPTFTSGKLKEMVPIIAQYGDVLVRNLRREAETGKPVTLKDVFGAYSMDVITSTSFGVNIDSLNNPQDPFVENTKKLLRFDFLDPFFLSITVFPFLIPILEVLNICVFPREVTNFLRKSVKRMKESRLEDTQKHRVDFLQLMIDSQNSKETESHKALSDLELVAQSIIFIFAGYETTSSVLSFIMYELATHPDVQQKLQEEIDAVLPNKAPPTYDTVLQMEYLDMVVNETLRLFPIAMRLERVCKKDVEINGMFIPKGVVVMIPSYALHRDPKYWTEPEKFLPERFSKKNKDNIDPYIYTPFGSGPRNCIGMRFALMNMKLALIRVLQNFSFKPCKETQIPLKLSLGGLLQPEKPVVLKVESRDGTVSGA
Cytochrome P450 2C19, sequence (P33261 whole entry): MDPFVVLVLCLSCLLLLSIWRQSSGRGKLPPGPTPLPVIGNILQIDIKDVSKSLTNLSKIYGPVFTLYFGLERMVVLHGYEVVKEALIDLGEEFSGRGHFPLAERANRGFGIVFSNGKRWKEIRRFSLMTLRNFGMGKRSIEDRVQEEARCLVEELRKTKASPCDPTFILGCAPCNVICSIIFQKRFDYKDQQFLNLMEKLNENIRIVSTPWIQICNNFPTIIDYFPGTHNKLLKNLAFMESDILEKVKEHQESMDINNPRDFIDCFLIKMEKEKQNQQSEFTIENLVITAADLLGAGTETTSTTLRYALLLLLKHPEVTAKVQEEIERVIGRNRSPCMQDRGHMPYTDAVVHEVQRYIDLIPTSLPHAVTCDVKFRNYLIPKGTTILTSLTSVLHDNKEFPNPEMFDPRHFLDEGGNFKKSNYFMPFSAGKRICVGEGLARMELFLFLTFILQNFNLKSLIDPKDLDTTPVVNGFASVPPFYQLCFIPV
Cytochrome P450 2C9, sequence (P11712 whole entry): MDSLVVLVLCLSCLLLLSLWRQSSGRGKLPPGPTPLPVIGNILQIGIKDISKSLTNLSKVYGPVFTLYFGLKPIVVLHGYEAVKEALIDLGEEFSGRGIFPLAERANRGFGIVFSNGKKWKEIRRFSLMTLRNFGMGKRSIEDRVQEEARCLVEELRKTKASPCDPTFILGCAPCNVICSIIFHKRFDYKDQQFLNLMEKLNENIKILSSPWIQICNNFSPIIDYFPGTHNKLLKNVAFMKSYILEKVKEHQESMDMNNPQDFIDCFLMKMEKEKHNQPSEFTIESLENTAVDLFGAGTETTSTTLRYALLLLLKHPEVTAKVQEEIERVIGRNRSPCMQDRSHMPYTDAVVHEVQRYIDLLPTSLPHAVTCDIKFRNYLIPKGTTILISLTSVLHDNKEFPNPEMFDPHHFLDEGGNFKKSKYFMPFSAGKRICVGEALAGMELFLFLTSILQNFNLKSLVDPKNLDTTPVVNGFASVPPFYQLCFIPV

What is called EC50 is the concentration needed to bring the measured effect to its halfway point. Consider `CCCNC(=O)c1cccc(COCC(F)(F)F)c1`, for which, in data set [1], the EC50 is > 195 µM (not active).

`NC(=O)c1cc2ccncc2c2ccccc12`: the EC50 in data set [1] was 4.29 µM (active).

On to `C/C(=N\N(Cc1ccccc1)c1ccccc1)c1cccnc1`, for which the EC50 in data set [2] was 3.78 µM (active); in data set [3], > 60 µM (not active).

Broadly, the AC50 is the midpoint of the concentration-response curve, whichever way the signal moves. As to `Cc1cccn2c(=O)c3cc(C(=O)N4COCC4(C)C)n(C)c3nc12`, the AC50 on Cytochrome P450 2C19 (read-out: AC50) was 4.47 µM (inconclusive).

For the compound `Cc1ccc(C(=O)N(CCCN(C)C)c2nc3ccc(Cl)cc3s2)cc1C`, the half-maximal effective concentration (EC50) in data set [2] is 0.216 µM (active); in data set [3], > 60 µM (inconclusive).

With `COCCn1c(=O)[nH]c2cc(C(=O)N3CCN(c4ccccc4OC)CC3)ccc2c1=O`, the figures for the AC50 at Cytochrome P450 2C19 (read-out: AC50) and on Cytochrome P450 3A4 were 6.31 µM (inconclusive) and 14.1 µM (inconclusive), respectively.

Turning to `CCOc1ccc(-c2nnc3ccc(SC)nn23)cc1`, at Cytochrome P450 2C19 (read-out: AC50), the AC50 was 7.94 µM (inconclusive).

On to `CCC(=O)N1CCc2cc(S(=O)(=O)NC(C(=O)NCc3ccc(C)cc3)C(C)C)ccc21` (stereo not given), for which the concentration for a half-maximal effect (EC50) in data set [1] is listed as > 195 µM (not active).

With `CCOC(=O)c1c(C)nc2c(c1-c1ccccc1)C(=O)CC(C)(C)C2`, the AC50 at Cytochrome P450 2C9 was 15.8 µM (inconclusive).

On to `O=C(Oc1ccccc1)N1CCC2(CCCN(c3ccccc3)C2)CC1`, for which the AC50 at Cytochrome P450 3A4 was 31.6 µM (inconclusive); at Cytochrome P450 2C9, 12.6 µM (inconclusive).

In the case of `Cc1cc(C)c(S(=O)(=O)N/N=C/c2ccc3c(c2)OCO3)c(C)c1`, the EC50 in data set [1] is listed as > 195 µM (not active).

As for `O=S(=O)(NCC(c1cccnc1)N1CCN(Cc2ccccc2)CC1)c1ccc(Cl)cc1` (stereo not given), the EC50 in data set [2] was 0.641 µM (active); in data set [3], > 60 µM (not active).

As for `COC(=O)[C@H]1C[C@@H]1[C@H](NC(=O)c1cc(C)on1)c1ccccc1`, the AC50 on Cytochrome P450 3A4 is 15.8 µM (inconclusive); at Cytochrome P450 2C9 it was 31.6 µM (inconclusive).

Consider `CC(C)(C)c1ccc(C(=O)Nc2cccc3c(=O)[nH][nH]c(=O)c23)cc1`, for which the EC50 in data set [1] was 3.66 µM (active).

In the case of `COc1ccccc1-c1cncnc1NCCNC(C)=O`, the AC50 at Cytochrome P450 2C19 (read-out: AC50) is 39.8 µM (inconclusive).

Regarding `CCc1c(C)c(C#N)c2nc3ccccc3n2c1Nc1c(C)n(C)n(-c2ccccc2)c1=O`, the AC50 at Cytochrome P450 2C19 (read-out: AC50) was 25.1 µM (inconclusive); at Cytochrome P450 2C9, 5.01 µM (inconclusive).

Take `CCSc1nnc(NC(=O)Cc2ccc(OC)c(OC)c2)s1`: the AC50 on Cytochrome P450 2C19 (read-out: AC50) is 28.2 µM (inconclusive); on Cytochrome P450 2C9, 2.82 µM (inconclusive).

Turning to `COc1ccc(-n2c(-c3ccccc3)nc(=S)c3c2CCCC3)cc1`, the AC50 at Cytochrome P450 3A4 is 20 µM (inconclusive).

For the compound `CCOC(=O)N1CCC(NC(=O)CCC(=O)N2CCOc3ccccc32)CC1`, the AC50 at Cytochrome P450 2C19 (read-out: AC50) is 14.1 µM (inconclusive); at Cytochrome P450 3A4 it was 10 µM (inconclusive).

Take `c1cncc(CNc2nc(-c3ccoc3)nc3ccccc23)c1`: the AC50 on Cytochrome P450 2C19 (read-out: AC50) is 20 µM (inconclusive).

Take `COc1ccc(/C=C/C(=O)OCCCN(C)C)cc1`: the EC50 was 0.237 µM (active) in data set [2] and > 60 µM (not active) in data set [3].

As to `COc1ccc2c(c1)C=C(CN1CCN(C3CCCC3)C(CCO)C1)CO2` (stereo not given), the EC50 is 1.75 µM (active) in data set [2] and > 60 µM (not active) in data set [3].

For the compound `C=CCC(C(=O)OC)(C(=O)OC)c1ccc([N+](=O)[O-])cn1`, the AC50 on Cytochrome P450 2C19 (read-out: AC50) was 14.1 µM (inconclusive).

Regarding `CS(=O)(=O)N1CCN(c2cccc(Cl)n2)CC1`, the 50% effective concentration (EC50) in data set [1] is given as > 195 µM (not active).

With `Cc1[nH]n(-c2ccccc2)c(=O)c1/N=N/c1cccc([N+](=O)[O-])c1`, the results for the EC50 in data set [2] and in data set [3] were > 30 µM (not active) and > 60 µM (not active), respectively.

As for `CCn1cc(S(=O)(=O)Nc2ccc3c(c2)OCCO3)cn1`, the EC50 in data set [1] was 1.86 µM (active).

Consider `Cc1cccc(N(C(=O)C(F)(F)F)C(C(=O)NC2CCCCC2)c2cccs2)c1` (stereo not given), for which the figures for the EC50 in data set [2] and in data set [3] were 3.39 µM (active) and > 60 µM (not active), respectively.

On to `CC1=C(CC(=O)O)c2cc(F)ccc2/C1=C\c1ccc(S(C)(=O)=O)cc1` [EXISULIND], for which the AC50 result on Cytochrome P450 2C19 is reported as “inconclusive”.

Turning to `Cc1cc(Cl)ccc1OCC(=O)Nc1nc(-c2cccnc2)cs1`, the EC50 in data set [1] is recorded as > 195 µM (not active).

For `C[C@@]12CCC(=O)C=C1CC[C@H]1[C@@H]2[C@@H](O)C[C@]2(C)[C@@H]1CC[C@@]2(O)C(=O)COC(=O)C1CCCC1`, on Cytochrome P450 3A4, the AC50 is 5.01 µM (inconclusive).

As for `Cn1c(=N)n(CC(O)c2ccccc2)c2ccccc21` (stereo not given), in data set [1], the half-maximal effective concentration (EC50) is given as > 195 µM (not active).

With `CN1CCN(c2ccc(S(=O)(=O)N3CCOCC3)cc2NC(=O)CCc2ccccc2)CC1`, the EC50 was 1.58 µM (active) in data set [2] and > 30 µM (not active) in data set [3].

On to `O=C(c1csnn1)N1CCC[C@@]2(CCN(Cc3nccs3)C2)C1`, for which the half-maximal activity concentration (AC50) at Cytochrome P450 2C19 (read-out: AC50) is 25.1 µM (inconclusive).

Turning to `Cc1cc(N2CCOCC2)ncc1[N+](=O)[O-]`, the AC50 at Cytochrome P450 2C9 is 14.1 µM (inconclusive).

Consider `CC(C)(C)C(=O)N1CCC(O)(CS(=O)(=O)Cc2ccc(Cl)cc2)CC1`, for which the AC50 on Cytochrome P450 3A4 was 20 µM (inconclusive).

As to `CC(=O)CC(=O)Nc1ccc2ccccc2c1`, the AC50 entry at Cytochrome P450 2C19 is recorded as “inconclusive”.

With `CC(=O)Nc1ccc2c(c1)/C(=N/c1ccc(C(=O)O)cc1)c1ccccc1-2`, at Cytochrome P450 3A4, the AC50 is 3.98 µM (inconclusive).

With `CCc1ccc(NC(=O)C2CCC(CNC(=O)[C@@H]3Cc4ccccc4CN3)CC2)cc1` (stereo not given in full), the EC50 in data set [1] is reported as > 195 µM (not active).

As for `CCc1nnc(N/N=C\c2ccc(OC(C)=O)c(OC)c2)n1N`, the 50% effective concentration (EC50) in data set [1] is reported as > 195 µM (not active).

With `N#Cc1cc(-c2ccc(Cl)cc2)cnc1Sc1ccccc1`, the EC50 is 3.77 µM (active) in data set [2] and > 60 µM (not active) in data set [3].

Consider `N=C(N)N[C@H](CCC(=O)O)C(=O)O`, for which the AC50 at Cytochrome P450 3A4 is 3.16 µM (inconclusive).

On to `CN=C(S)N(CCc1c(C)[nH]c2ccc(Cl)cc12)Cc1cccs1`, for which the results for the EC50 in data set [2] and in data set [3] were 2.28 µM (active) and > 30 µM (not active), respectively.

As for `COc1ccc(CN2CCN(Cc3csc(C(C)=O)c3)CC2CCO)c(C)c1C` (stereo not given), the EC50 in data set [2] was 0.284 µM (active); in data set [3], > 60 µM (not active).

As for `COc1cc(NC(=O)N[C@@H](Cc2c[nH]c3ccccc23)C(=O)O)c(C(=O)O)cc1OC`, in data set [1], the EC50 is listed as > 195 µM (not active).

On to `C/C(=N\NC(=O)c1c(C)nc2ccccn12)c1ccc(C(C)(C)C)cc1`, for which the EC50 in data set [1] is on record as > 195 µM (not active).

`CC(=O)Nc1ccccc1C(=O)OCC(=O)c1ccc2ccccc2c1`: the AC50 at Cytochrome P450 2C19 (read-out: AC50) is 1.26 µM (inconclusive).

As to `Cc1ccc(C)c(N2CN(Cc3cccnc3)CN=C2S)c1`, the EC50 in data set [2] was 0.726 µM (active); in data set [3], > 60 µM (inconclusive).

Take `COC(=O)[C@@]1(Cc2ccc(OC)cc2)[C@H]2c3cc(C(=O)N4CCCC4)n(Cc4cc(F)c(F)c(F)c4)c3C[C@H]2CN1C(=O)c1ccccc1`: the AC50 at Cytochrome P450 2C19 (read-out: AC50) was 1.58 µM (inconclusive).

On to `CN1CC[C@@]2(CCCN(C(=O)c3cc(C(F)(F)F)cc(C(F)(F)F)c3)C2)C1`, for which the AC50 on Cytochrome P450 3A4 is 25.1 µM (inconclusive).

On to `Cc1cccc(CNc2nc(-c3ccc4c(c3)OCO4)nc3ccccc23)c1`, for which the AC50 on Cytochrome P450 2C9 was 1 µM (inconclusive).

Consider `CCOc1ccc(CCNC(=O)c2nn(C)c3c2CS(=O)(=O)c2ccccc2-3)cc1`, for which, in data set [1], the EC50 was > 195 µM (not active).

For `COc1cccc(CN(C)CC2CCCN(CCc3ccc(Cl)cc3)C2)c1OC` (stereo not given), the EC50 in data set [1] is listed as > 195 µM (not active).

The record behind these values is ChEMBL document CHEMBL1201862, “PubChem BioAssay data set” (2004).
